Measurements reported in publication PMC8747035, “Design, Synthesis, and Biological Evaluation of 5,6,7,8-Tetrahydrobenzo[4,5]thieno[2,3-d]pyrimidines as Microtubule Targeting Agents” (Molecules, 2022).

Columns and labels:
MDA-MB-435 = experiment: NCI-60 growth inhibition, MDA-MB-435; assay type: cell-based; conditions: Homo sapiens, Melanoma
From the text: (§1) Compound 4 had better potency than the lead compound 1 in 50 cancer cell lines. (better by 5 to 6-fold in leukemia, 2 to 17-fold in NSCLC, 2 to 6-fold in colon cancer, 2 to 5-fold in CNS cancer, 2 to 25-fold in melanoma, 2 to 5-fold in ovarian cancer, 2 to 9-fold in renal cancer, 2 to 5-fold in prostate cancer, and 2 to 6-fold in breast cancer compared to lead compound 1).

SF-295 = experiment: NCI-60 growth inhibition, SF-295; assay type: cell-based; conditions: Homo sapiens, CNS Cancer
From the text: as §1

MCF7 = experiment: NCI-60 growth inhibition, MCF7; assay type: cell-based; conditions: Homo sapiens, Breast Cancer
From the text: as §1

NCI/ADR-RES = experiment: NCI-60 growth inhibition, NCI/ADR-RES; assay type: cell-based; conditions: Homo sapiens, Ovarian Cancer
From the text: as §1

SN12C = experiment: NCI-60 growth inhibition, SN12C; assay type: cell-based; conditions: Homo sapiens, Renal Cancer
From the text: as §1

A-10 cells = experiment: Cellular microtubule depolymerization in A-10 cells (immunofluorescence); assay type: cell-based; conditions: Rattus norvegicus, A10; 18 h, loss of 50% of interphase microtubules
Method: We investigated the microtubule depolymerization and the antiproliferative activities of compounds 4–14 (Table 2). […] We next evaluated the importance of the 4′-OMe group of compound 4 by replacing it with an isosteric 4′-SMe (5). […] Clearly, this further substantiated the importance of an S in the scaffold over an NH.
The effects of the compounds on cellular microtubules were evaluated in A-10 cells using indirect immunofluorescence microscopy. These cells were obtained from the American Type Culture Collection (ATCC) (Manassas, VA, USA). Cells were treated with the compounds of interest for 18 h, and the cells fixed with cold MeOH and microtubule structures were visualized using a β-tubulin antibody (Sigma-Aldrich, St. Louis, MO, USA). The concentration that caused loss of 50% of the interphase microtubules was defined as the EC50 and calculated as previously described. These values represent an average of at least three independent experiments.

DU-145 = experiment: NCI-60 growth inhibition, DU-145; assay type: cell-based; conditions: Homo sapiens, Prostate Cancer
From the text: as §1

tubulin = experiment: Inhibition of [3H]colchicine binding to tubulin; parameters: species or system Bovine; conditions: compound at 5 μM, 5.0 µM [3H]colchicine, 1.0 µM tubulin
Method: Bovine brain tubulin was purified as described previously. The tubulin assembly assay has been described in detail. Briefly, 1.0 mg/mL of tubulin (10 µM) was preincubated for 15 min at 30 °C in 0.8 M monosodium glutamate (pH of 2 M stock solution adjusted to 6.6 with HCl), varying compound concentrations and 4% (v/v) DMSO as compound solvent. After the preincubation, the reaction mixtures were placed on ice and 0.4 mM GTP was added. The reaction mixtures were transferred to cuvettes at 0 °C in a recording spectrophotometer equipped with an electronic temperature controller. After baselines were established, the temperature was elevated over about 30 s to 30 °C, and changes in turbidity were monitored at 350 nm for 20 min. The compound concentration that caused a 50% reduction in increase in turbidity, interpolated from the values obtained with defined compound concentrations, was defined as the IC50 value. The assay to measure inhibition of [^3H]colchicine binding was described in detail previously. Briefly, 0.1 mg/mL (1.0 µM) tubulin was incubated at 37 °C with 5.0 µM [3H]colchicine and potential inhibitors at 5.0 µM. […] The [^3H]colchicine was a product of PerkinElmer, USA.

HCT-116 = experiment: NCI-60 growth inhibition, HCT-116; assay type: cell-based; conditions: Homo sapiens, Colon Cancer
From the text: as §1

SK-OV-3 = experiment: NCI-60 growth inhibition, SK-OV-3; assay type: cell-based; conditions: Homo sapiens, Ovarian Cancer
From the text: as §1

SK-OV-3 cells = experiment: SRB assay in SK-OV-3 cells; assay type: cell-based; conditions: Homo sapiens, read-out: IC50 ± SD in SK-OV-3 Cells
Method: (§2) Comparison of the IC50 values in the parental SK-OV-3 and genetically manipulated SK-OV-3 MDR1-M6/6 cell line allows for the calculation of a relative resistance value, designated Rr. This value is calculated by dividing the IC50 value obtained in the Pgp-expressing SK-OV-3 MDR1-M6/6 cells by the IC50 obtained in the parental SK-OV-3 cells.
(§3) The antiproliferative and cytotoxic effects of the compounds in cancer cells were evaluated using the SRB assay as previously described. MDA-MB-435 cells were obtained from the Lombardi Cancer Center of Georgetown University (Washington, DC, USA). SK-OV-3 and HeLa cells were purchased from ATCC. Details about the generation of the SK-OV-3 MDR1-M6/6 and HeLa WTβIII cells were described previously. The IC50 values represent an average of three independent experiments, each conducted using triplicate points.
(§4) HeLa, A-10, SK-OV-3, and SK-OV-3 MDR1-M6/6 cells were grown in Basal Medium Eagle (Sigma-Aldrich, St. Louis, MO, USA) supplemented with 10% FBS (Hyclone, GE Life Sciences, Logan, UT, USA) 1% GlutaMAX (Gibco, Life Technologies, Waltham, MA, USA) and 50 µg/mL gentamycin (Life Technologies, USA). HeLa WTβIII cells were grown in Dulbecco’s Modified Eagle Medium (Life Technologies) supplemented with 10% FBS and 50 µg/mL gentamycin. MDA-MB-435 cells were maintained in Improved Minimum Essential Medium (Life Technologies) supplemented with 10% FBS and 25 µg/mL gentamycin. All cells were grown at 37 °C in a humidified environment with 5% CO2.

RXF 393 = experiment: NCI-60 growth inhibition, RXF 393; assay type: cell-based; conditions: Homo sapiens, Renal Cancer
From the text: as §1

SK-OV-3 MDR1-M6/6 cells = experiment: SRB assay in Pgp-expressing SK-OV-3 MDR1-M6/6 cells; assay type: cell-based; conditions: Homo sapiens, SKOV3-MDR1-M6/6, read-out: IC50 ± SD in SK-OV-3 MDR1-M6/6 Cells
Method: as §2, §3, §4

NCI-H522 = experiment: NCI-60 growth inhibition, NCI-H522; assay type: cell-based; conditions: Homo sapiens, NSCLC
From the text: as §1

HeLa WTβIII cells = experiment: SRB assay in βIII-tubulin expressing HeLa WTβIII cells; assay type: cell-based; conditions: Homo sapiens, read-out: IC50 ± SD in HeLa WTβ3
Method: Compounds 4–8, 10, 12, and 13 were evaluated for their abilities to overcome βIII-tubulin mediated drug resistance using an isogenic HeLa cell line pair (Table 4). […] The Rr values (Table 4) were calculated by dividing the IC50 of the βIII-tubulin expressing line by the IC50 obtained in the parental HeLa cells.
as §3, §4

CCRF-CEM = experiment: NCI-60 growth inhibition, CCRF-CEM; assay type: cell-based; conditions: Homo sapiens, Leukemia
From the text: as §1

RPMI-8226 = experiment: NCI-60 growth inhibition, RPMI-8226; assay type: cell-based; conditions: Homo sapiens, Leukemia
From the text: as §1

K-562 = experiment: NCI-60 growth inhibition, K-562; assay type: cell-based; conditions: Homo sapiens, K562, Leukemia
From the text: as §1

U251 = experiment: NCI-60 growth inhibition, U251; assay type: cell-based; conditions: Homo sapiens, U-251, CNS Cancer
From the text: as §1

COc1ccc(N(C)c2nc(N)nc3sc4c(c23)CCCC4)cc1 [Compound 4, N4-(4-methoxyphenyl)-N4-methyl-5,6,7,8-tetrahydrobenzo[4,5]thieno[2,3-d]pyrimidine-2,4-diamine]
GI50 (MDA-MB-435): 4.89 nM | GI50 (SF-295): 10.2 nM | GI50 (MCF7): 8.01 nM | GI50 (NCI/ADR-RES): 6.19 nM | GI50 (SN12C): 14.4 nM | EC50 (A-10 cells): 19 nM | GI50 (DU-145): 15.6 nM | Inhibition of Colchicine Binding (% inhibition ± SD) (tubulin): 99.0 ± 1.0% | GI50 (HCT-116): 5.46 nM | GI50 (SK-OV-3): 15.6 nM | IC50 (SK-OV-3 cells): 11.8 ± 1.1 nM | GI50 (RXF 393): 7.65 nM | IC50 (SK-OV-3 MDR1-M6/6 cells): 17.5 ± 0.8 nM | GI50 (NCI-H522): 6.87 nM | IC50 (HeLa WTβIII cells): 10.6 ± 1.8 nM | GI50 (CCRF-CEM): 7.12 nM | GI50 (RPMI-8226): 12.7 nM | GI50 (K-562): 2.72 nM | GI50 (U251): 9.6 nM
